This note sets out measurements from patent publication US9518051B2, “Pyrroloquinoline alkaloids as antimalarial agents and process for the preparation thereof” (Council of Scientific & Industrial Research, priority 2012, dated 2016).

In data set [1] the test system is Plasmodium falciparum 3D7 (chloroquine sensitive strain). Kind of data set: Anti malarial activity in vitro on Plasmodium falciparum at erythrocyte stage. The format is cell-based. As to conditions: compound in crude form. How it is done: In a preferred embodiment, the compound NCLite-M1 was tested for anti-malarial activity against a known parasite Plasmodium falciprum 3D7 was used, which is chloroquine sensitive strain and the results are tabulated herein.
This study was performed in vitro on Plasmodium falciparum at erythrocyte stage. The test protocol for testing antimalarial activity is from R. E. Desjardins, C. J. Canfield, J. D. Haynes and J. D. Chulay Antimicrob. Agents Chemother. 1979, 16, 710.
A known parasite 3D7 was used, which is Chloroquine sensitive strain. 2 mg of the compound NCLite-M1 which has a molecular weight of 326.35, was dissolved in 10 mL of EtOH and used as a stock. […] Further studies using highly pure compound and its soluble salts are planned.

Structures are written as SMILES.

A word on the melting point: it is the temperature, or range, at which the solid turns liquid. Consider `Nc1ncnc2c1ncn2Cc1nc2ccccc2c2cc[nH]c12` [Aplidiopsamine A], for which the melting point fell in the range of 229 to 231 °C.

As usually defined, the inhibition is the drop in the measured response relative to a control, in per cent. Turning to `O=c1c2ccccc2ncn1Cc1nc2ccccc2c2cc[nH]c12` [NCLite-M1, 3-((3H-pyrrolo[2,3-c]quinolin-4-yl)methyl)quinazolin-4(3H)-one], the “lowest concentration at which the compound is active” value in data set [1] (P. falciparum 3D7) worked out at 2 µmol. For the same compound, the inhibition at 25 µM in data set [1] (Plasmodium falciparum, concentration 25 μM, P. falciparum 3D7, erythrocyte stage, read-out: % inhibition by NCLite-M1) worked out at 19.5%. In addition, in data set [1] (Plasmodium falciparum, concentration 50 μM, P. falciparum 3D7, erythrocyte stage, read-out: % inhibition by NCLite-M1), the inhibition at 50 µM turned out to be 77.2%. For the same compound, in data set [1] (Plasmodium falciparum, concentration 75 μM, P. falciparum 3D7, erythrocyte stage, read-out: % inhibition by NCLite-M1), the inhibition at 75 µM stood at 89.4%. Further, the “% inhibition by NCLite-M1” value in data set [1] (concentration 2-5 μM, P. falciparum 3D7, erythrocyte stage) amounted to 17.6%. For the compound `Cc1nc2cc(Cl)ccc2c2ccn(S(=O)(=O)c3ccccc3)c12` [Table 2, entry 2, 7-chloro-4-methyl-3-(phenylsulfonyl)-3H-pyrrolo[2,3-c]quinoline], the melting point was 178 to 180 °C.

`N#Cc1ccc2nc(-c3ccccc3)c3ccccc3c2c1` [Table 2, entry 5, 6-phenylphenanthridine-2-carbonitrile] displayed a melting point of 233 to 235 °C. Take `N#Cc1ccc2[nH]c(-c3ccccc3)cc2c1` [Table 2, entry 6, 2-phenyl-1H-indole-5-carbonitrile]: the melting point lay in the range of 194 to 196 °C.

`Cc1nc2ccccc2c2ccn(S(=O)(=O)c3ccccc3)c12` [compound 3, 4-Methyl-3-(phenylsulfonyl)-3H-pyrrolo[2,3-c]quinoline]: the melting point lay in the range of 143 to 145 °C.
